pIC50: −log10 of the molar value.
Columns and labels:
[1] = test system: control and CDCA3-depleted cells; experiment: Mitotic entry and recovery from cisplatin-induced G2 checkpoint, flow cytometry of Ser-10 phosphorylated histone H3 (FIG. 2C); format: cell-based; details: after cisplatin-induced G2 checkpoint; both control and CDCA3-depleted cells
Description: FIG. 2. (A) Undamaged cells depleted of CDCA3 progress to mitosis slower than control cells or cells complemented with siRNA resistant CDCA3. (B) Cisplatin treated cells and depleted of CDCA3 are unable to recover from cell cycle arrest. (C) Cells treated with Cisplatin and then a PLK1 inhibitor are unable to recover from cell cycle arrest.
As this protein is reported to regulate cell proliferation (as confirmed by data in FIG. 7), the present inventors investigated its potential role in cell cycle progression from G2 into mitosis. To examine cell cycle progression, control cells, CDCA3-depleted cells or depleted cells ectopically expressing siRNA resistant CDCA3-FLAG were synchronized at the G1/S cell cycle boundary by a double thymidine block and released for seven hours (˜G2 phase). At this time cells were treated with or without cisplatin for 3.5 h and released into nocodazole containing media to capture cells in mitosis. Mitotic cells were determined by flow cytometry analysis of cells stained for Ser-10 phosphorylated histone H3. In undamaged cells, CDCA3 depletion slowed the progression of cells from G2 into mitosis (FIG. 2A). However, in cisplatin treated cells, CDCA3 depletion abolished mitotic progression with an inability to recover from G2 cell cycle arrest (FIG. 2B). […]

NSCLC cells [2] = experiment: Cell death with cisplatin and/or BI 2536 in control versus CDCA3 depleted NSCLC cells (FIG. 9B); format: cell-based; details: monotherapy
PLK1 = experiment: Mitotic index (H3S10ph) in cells expressing wildtype or T210D PLK1 (FIG. 4D); format: cell-based; details: dose dependent
CDCA3 and PLK1 = experiment: Immunoprecipitation of CDCA3 with PBD of PLK1 under CDK1 inhibition (FIG. 5E); format: cell-based; details: inhibition of CDK1 to block CDCA3 phosphorylation
Description: FIG. 5. (A) PLK1 schematic listing kinase domain and polo-box domain (PBD). (B) CDCA3 immunoprecipitates with the PBD of PLK1 irrespective of the phospho-binding mutant (H538 and K540 each mutated to alanine residues). (C) CDCA3 is phosphorylated by CDK1-cyclin B1 causing a large molecular weight shift measured by SDS-PAGE. (D) Mutating each of the five CDK1-cyclin B1 phosphorylation sites within CDCA3 enhances binding to PLK1. (E) Inhibition of CDK1 with RO3306 enhances immunoprecipitation of CDCA3 with the PBD domain of PLK1. (F) Unmodified recombinant CDCA3 binds to recombinant Aurora A and PLK1. CDCA3 pre-phosphorylated by CDK1-cyclin B1 binds markedly less to PLK1 than unmodified CDCA3. (G) Recombinant unmodified CDCA3 but not phosphorylated CDCA3 enhances the in vitro activation and phosphorylation of PLK1 by Aurora A.
The present inventors next examined the mechanism regulating the association between CDCA3 and PLK1. The structure of PLK1 consists of an N-terminal kinase domain and a […] polo-box domain (PBD; FIG. 5A). Classically, the PBD binds phosphorylated substrates requiring the residues His538 and Lys540. Using immunoprecipitation analysis of lysates from cells ectopically expressing CDCA3 and the PBD of PLK1, it was identified that CDCA3 associates with the PLK1 PBD independent of residues His538 and Lys540 (FIG. 5B). […]

NSCLC cells [3] = experiment: Cisplatin IC50 in CDCA3-depleted versus control NSCLC cells (FIG. 8); format: cell-based
Description: FIG. 8. CDCA3-depletion reduces cisplatin IC50 values ˜2-4 fold versus control NSCLC cells but not non-tumorigenic lung epithelial HBEC cells, indicating increased sensitivity to cisplatin in NSCLC in vitro.
To investigate the diagnostic potential for CDCA3, the present inventors stratified the UT Lung SPORE cohort data based on CDCA3 expression (CDCA3low=below median, CDCA3high=above median). In this trial, patients undergoing curative resection were either observed only (OBS) or received adjunct chemotherapy (ACT).

H1650 cells = experiment: Cell viability assay (CellTitre-Glo 2.0), H1650; format: cell-based; details: relative to other cell lines
Experimental: (§1) All NSCLC cell lines were obtained from the American Type Culture Collection (ATCC) except for PC-9 cell line which was sourced from the European Collection of Cell Cultures (ECACC). Cells were grown in RPMI-1640-medium containing L-glutamine (Life Technologies) and 10% foetal bovine serum (FBS, Sigma Aldrich). […] All cell lines were cultured at 37° C. in a humidified 5% CO2 incubator and routinely tested for mycoplasma contamination. Transfection of CDCA3-FLAG expression construct was performed using the FuGene HD transfection reagent (Promega Corporation).
(§2) Cells were seeded into a white-walled, glass-bottomed 384-well plate (Nunc) at a density of 1x10^3 cells per well. […] Cell viability was determined using CellTitre-Glo 2.0 (Promega Corporation) according to the manufacturer's instructions. Luminescence was scanned and analysed on the FLUOstar Omega Microplate Reader (BMG Labtech). Data was normalised to untreated controls and dose response curves and drug potency values generated using GraphPad Prism V9 software.
(§3) The present inventors evaluated TCGA datasets and correlated relative CDCA3 expression against available WikiPathways (2) of known measures of TKI resistance. […] Relative CDCA3 protein levels were correlated with the TKI potency values.

PC-9 cells = format: cell-based; details: for effect of ectopic CDCA3 expression on sensitivity: PC-9 parental cells; for enhancement of potency by ectopic CDCA3 expression: PC-9 resistant cells
Experimental: as §1, §2
(§4) The present inventors next sought to assess this possibility in in vitro models of acquired TKI resistance. […] Cells not exposed to TKI were also maintained in culture for the same period, hereafter referred to as the parental cells.

HCC827 cells = test system: HCC827 cells
Experimental: as §1, §2, §4

H1975 cells = experiment: Cell viability assay (CellTitre-Glo 2.0), H1975; format: cell-based; details: Homo sapiens, NCI-H1975, 72 h
Experimental: as §1, §2, §3

CDCA3 = CDCA3 levels after TKI treatment of EGFR mut NSCLC cell lines (FIG. 12); format: cell-based; details: H1975 cells (L858R, T790M)
Experimental: Given CDCA3 levels are responsive to EGFR activation, the present inventors examined CDCA3 levels following second and third generation TKI treatment of three EGFR^mut cell lines; HCC827 and H1650 (exon 19 deletion E746-A750) and H1975 cells (L858R, T790M-resistant to first and second generation TKI).
To collect whole cell lysates, cells were first washed in PBS then lysed in lysis buffer (50 mM HEPES (pH 7.5), 150 mM KCl, 5 mM EDTA, 0.05% IGEPAL CA-630 (v/v), 1× protease inhibitor cocktail (Roche), and 1× phosphatase inhibitor cocktail (Cell Signalling Technology). Total protein was determined by bicinchoninic acid (BCA) protein assay (Sigma Aldrich) following lysate sonication and centrifugation. Samples (total protein 20 20 μg) were denatured in 1× Laemmli Buffer supplemented with 8% β-mercaptoethanol for 5 minutes at 80° C.
The samples were separated on Bolt 4-12% Bis-Tris Plus pre-cast gels (Invitrogen) and transferred onto nitrocellulose membrane (GE Healthcare Life Sciences) using the semi-dry Novex XCell II Blot Module transfer system (Life Technologies). The nitrocellulose membranes were blocked using Odyssey blocking buffer (Li-Cor) before incubation overnight at 4° C. with primary antibody in a 1:1 solution of PBS-T and Odyssey Blocking Buffer. Following primary antibody incubation, membranes were washed with PBS-T and incubated with the appropriate secondary antibodies. […]

## CC[C@@H]1C(=O)N(C)c2cnc(Nc3ccc(C(=O)NC4CCN(C)CC4)cc3OC)nc2N1C1CCCC1 [BI 2536]
[1]
  mitotic entry: blocked mitotic entry
NSCLC cells [2]; CDCA3 depleted cells
  cell death: ~13%
NSCLC cells [2]; control cells
  cell death: ~30%
PLK1
  mitotic entry (mitotic index): reduced

## O=C1NC(=NCc2cccs2)S/C1=C\c1ccc2ncccc2c1 [R03306]
CDCA3 and PLK1
  association between CDCA3 and PLK1: increase

## N.N.[Cl][Pt][Cl] [cisplatin]
NSCLC cells [3]
  reduction of cisplatin IC50 values by CDCA3-depletion: 2-4 fold

## C#Cc1cccc(Nc2ncnc3cc(OCCOC)c(OCCOC)cc23)c1 [erlotinib]
H1650 cells
  sensitivity: insensitive
PC-9 cells
  effect of ectopic CDCA3 expression on sensitivity: did not impact
  enhancement of potency by ectopic CDCA3 expression: ~57 fold
HCC827 cells
  effect of ectopic CDCA3 expression on sensitivity: did not impact
H1975 cells
  pIC50: 4.18

## C=CC(=O)Nc1cc(Nc2nccc(-c3cn(C)c4ccccc34)n2)c(OC)cc1N(C)CCN(C)C [osimertinib]
PC-9 cells
  effect of ectopic CDCA3 expression on sensitivity: did not impact
  enhancement of potency by ectopic CDCA3 expression: 54 fold
PC-9 cells; erlotinib resistant PC-9 versus parental PC-9
  increase in IC50 values versus parental: ~1,470 fold
HCC827 cells
  effect of ectopic CDCA3 expression on sensitivity: did not impact
  enhancement of potency by ectopic CDCA3 expression: ~121 fold
  increase in IC50 values versus parental: ~385 fold
CDCA3
  CDCA3 levels: reduced

Reference: patent publication US20230323466A1, “DETERMINING CANCER RESPONSIVENESS TO TREATMENT” (Queensland University of Technology, priority 2020, published 2023)
